Data as given in patent US12077503B2, “Substituted cyclic amides and their use as herbicides” (FMC CORPORATION, priority 2015, dated 2024).

Tests used:
Format in all cases: in vivo
[1] = system: barnyardgrass (Echinochloa crus-galli); assay: Test G Pre-Emergence Protocol; conditions: Echinochloa crus-galli, pre-emergence, 312 h, evaluated after 13 days
In short: (§1)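 One day after sowing, pots are treated with a spray of test compound formulated in acetone/water 50:50 plus 0.5% Tween 20, giving 15.625, 62.5 or 250 g/ha. Evaluation on a 0–100 damage scale follows 13 days of glasshouse growth.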

[2] = system: velvetleaf (Abutilon theophrasti); assay: Test G Pre-Emergence Protocol; conditions: Abutilon theophrasti, pre-emergence, 312 h, evaluated after 13 days
In short: as §1

[3] = system: redroot pigweed (Amaranthus retroflexus); assay: Test G Pre-Emergence Protocol; conditions: Amaranthus retroflexus, pre-emergence, 312 h, evaluated after 13 days
In short: as §1

[4] = system: giant foxtail (Setaria faberi); assay: Test G Pre-Emergence Protocol; conditions: Setaria faberi, pre-emergence, 312 h, evaluated after 13 days
In short: as §1

[5] = system: ivy-leaved morning glory (Ipomoea hederacea); assay: Test G Pre-Emergence Protocol; conditions: Ipomoea, pre-emergence, 312 h, evaluated after 13 days
In short: as §1

corn (Zea mays) [6] = assay: Test G Pre-Emergence Protocol; conditions: Zea mays, pre-emergence, 312 h, evaluated after 13 days
In short: as §1

[7] = system: barnyardgrass (Echinochloa crus-galli); assay: Test G Post-Emergence Protocol; conditions: Echinochloa crus-galli, post-emergence, 312 h
In short: (§2)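 Eight days post-sowing, plants received a spray of test compound (acetone/water 50:50, 0.5% Tween 20) at 15.625, 62.5 or 250 g/ha. Glasshouse regime thereafter: 24/16 °C, 14 h light, 65% humidity. Assessment after 13 days on a 0–100 damage scale.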

[8] = system: velvetleaf (Abutilon theophrasti); assay: Test G Post-Emergence Protocol; conditions: Abutilon theophrasti, post-emergence, 312 h
In short: as §2

[9] = system: redroot pigweed (Amaranthus retroflexus); assay: Test G Post-Emergence Protocol; conditions: Amaranthus retroflexus, post-emergence, 312 h
In short: as §2

[10] = system: giant foxtail (Setaria faberi); assay: Test G Post-Emergence Protocol; conditions: Setaria faberi, post-emergence, 312 h
In short: as §2

[11] = system: ivy-leaved morning glory (Ipomoea hederacea); assay: Test G Post-Emergence Protocol; conditions: Ipomoea, post-emergence, 312 h
In short: as §2

corn (Zea mays) [12] = assay: Test G Post-Emergence Protocol; conditions: Zea mays, post-emergence, 312 h
In short: as §2

Cc1cc(C(F)(F)F)ccc1NC(=O)[C@H]1C(=O)N(C)C[C@@H]1c1ccc(C(F)(F)F)cc1 (racemic) [Compound 1411]
0%: pest or weed control at 15.625 g/ha ([1]; 15.625 g ai/ha, read-out: Barnyard grass damage rating (100=total damage to plant; 0=no damage to plant)) | pest or weed control at 62.5 g/ha ([1]; 62.5 g ai/ha, 100=total damage to plant, 0=no damage to plant, read-out: plant damage rating, Barnyardgrass) | pest or weed control at 250 g/ha ([1]; 250 g ai/ha, read-out: Barnyardgrass damage rating (100=total damage to plant; 0=no damage to plant)) | pest or weed control at 15.625 g/ha ([2]; 15.625 g ai/ha, read-out: Velvetleaf damage rating (100=total damage to plant; 0=no damage to plant)) | pest or weed control at 62.5 g/ha ([2]; 62.5 g ai/ha, 100=total damage to plant, 0=no damage to plant, read-out: plant damage rating, Velvetleaf) | pest or weed control at 250 g/ha ([2]; 250 g ai/ha, read-out: Velvetleaf damage rating (100=total damage to plant; 0=no damage to plant)) | pest or weed control at 15.625 g/ha ([3]; 15.625 g ai/ha, read-out: Pigweed, Redroot damage rating (100=total damage to plant; 0=no damage to plant)) | pest or weed control at 62.5 g/ha ([3]; 62.5 g ai/ha, 100=total damage to plant, 0=no damage to plant, read-out: plant damage rating, Pigweed, Redroot) | pest or weed control at 250 g/ha ([3]; 250 g ai/ha, read-out: Pigweed, Redroot damage rating (100=total damage to plant; 0=no damage to plant)) | pest or weed control at 15.625 g/ha ([4]; 15.625 g ai/ha, read-out: Foxtail, Giant damage rating (100=total damage to plant; 0=no damage to plant)) | pest or weed control at 62.5 g/ha ([4]; 62.5 g ai/ha, 100=total damage to plant, 0=no damage to plant, read-out: plant damage rating, Foxtail, Giant) | pest or weed control at 250 g/ha ([4]; 250 g ai/ha, read-out: Foxtail, Giant damage rating (100=total damage to plant; 0=no damage to plant)) | pest or weed control at 15.625 g/ha ([5]; 15.625 g ai/ha, read-out: Morning-glory, Ivy-leaved damage rating (100=total damage to plant; 0=no damage to plant)) | pest or weed control at 62.5 g/ha ([5]; 62.5 g ai/ha, 100=total damage to plant, 0=no damage to plant, read-out: plant damage rating, Morningglory, Ivy-leaved) | pest or weed control at 250 g/ha ([5]; 250 g ai/ha, read-out: Morningglory, Ivy-leaved damage rating (100=total damage to plant; 0=no damage to plant)) | plant injury at 15.625 g/ha (corn (Zea mays) [6]; 15.625 g ai/ha, read-out: Corn damage rating (100=total damage to plant; 0=no damage to plant)) | plant injury at 62.5 g/ha (corn (Zea mays) [6]; 62.5 g ai/ha, 100=total damage to plant, 0=no damage to plant, read-out: plant damage rating, Corn) | plant injury at 250 g/ha (corn (Zea mays) [6]; 250 g ai/ha, read-out: Corn damage rating (100=total damage to plant; 0=no damage to plant)) | pest or weed control at 15.625 g/ha ([7]; 15.625 g ai/ha, evaluated after 13 days (100=total damage to plant; 0=no damage to plant), read-out: Barnyardgrass damage rating) | pest or weed control at 62.5 g/ha ([7]; 62.5 g ai/ha, evaluated after 13 days, read-out: Barnyardgrass damage rating (100=total damage to plant; 0=no damage to plant)) | pest or weed control at 250 g/ha ([7]; 250 g ai/ha, evaluated after 13 days, read-out: damage to plant, Barnyardgrass (100=total damage to plant; 0=no damage to plant)) | pest or weed control at 15.625 g/ha ([8]; 15.625 g ai/ha, evaluated after 13 days (100=total damage to plant; 0=no damage to plant), read-out: Velvetleaf damage rating) | pest or weed control at 62.5 g/ha ([8]; 62.5 g ai/ha, evaluated after 13 days, read-out: Velvetleaf damage rating (100=total damage to plant; 0=no damage to plant)) | pest or weed control at 250 g/ha ([8]; 250 g ai/ha, evaluated after 13 days, read-out: damage to plant, Velvetleaf (100=total damage to plant; 0=no damage to plant)) | pest or weed control at 15.625 g/ha ([9]; 15.625 g ai/ha, evaluated after 13 days (100=total damage to plant; 0=no damage to plant), read-out: Pigweed, Redroot damage rating) | pest or weed control at 62.5 g/ha ([9]; 62.5 g ai/ha, evaluated after 13 days, read-out: Pigweed, Redroot damage rating (100=total damage to plant; 0=no damage to plant)) | pest or weed control at 250 g/ha ([9]; 250 g ai/ha, evaluated after 13 days, read-out: damage to plant, Pigweed, Redroot (100=total damage to plant; 0=no damage to plant)) | pest or weed control at 15.625 g/ha ([10]; 15.625 g ai/ha, evaluated after 13 days (100=total damage to plant; 0=no damage to plant), read-out: Foxtail, Giant damage rating) | pest or weed control at 62.5 g/ha ([10]; 62.5 g ai/ha, evaluated after 13 days, read-out: Foxtail, Giant damage rating (100=total damage to plant; 0=no damage to plant)) | pest or weed control at 250 g/ha ([10]; 250 g ai/ha, evaluated after 13 days, read-out: damage to plant, Foxtail, Giant (100=total damage to plant; 0=no damage to plant)) | pest or weed control at 15.625 g/ha ([11]; 15.625 g ai/ha, evaluated after 13 days (100=total damage to plant; 0=no damage to plant), read-out: Morningglory, Ivy-leaved damage rating) | pest or weed control at 62.5 g/ha ([11]; 62.5 g ai/ha, evaluated after 13 days, read-out: Morningglory, Ivy-leaved damage rating (100=total damage to plant; 0=no damage to plant)) | pest or weed control at 250 g/ha ([11]; 250 g ai/ha, evaluated after 13 days, read-out: damage to plant, Morningglory, Ivy-leaved (100=total damage to plant; 0=no damage to plant)) | plant injury at 15.625 g/ha (corn (Zea mays) [12]; 15.625 g ai/ha, evaluated after 13 days (100=total damage to plant; 0=no damage to plant), read-out: Corn damage rating) | plant injury at 62.5 g/ha (corn (Zea mays) [12]; 62.5 g ai/ha, evaluated after 13 days, read-out: Corn damage rating (100=total damage to plant; 0=no damage to plant)) | plant injury at 250 g/ha (corn (Zea mays) [12]; 250 g ai/ha, evaluated after 13 days, read-out: damage to plant, Corn (100=total damage to plant; 0=no damage to plant))
